In one assay the test system is C. elegans. Kind of assay: Mitophagy and mitochondrial function in C. elegans. In kind it is in vivo. From the text:
FIGS. 13A-13B illustrate that coumarin 106 (“C1”, “AIC106”) promotes increased indices of mitophagy. FIG. 13A) Representative images and GFP quantification of mitochondrial content at day-5 adult worms (pges-1mtGFP; bottom) of mito::GFP reporter strains (GFP tagged to mitochondrial localizing signals) treated with C1 or DMSO control. FIG. 13B) Visualizing mitochondrial fission using mito::GFP (pmyo-3mtGFP) reporter strain. Representative GFP image shown in upper panel. Representative images (lower panel) showing mitochondrial fission after 48 hrs of C1 or control treatment (63× oil). Images converted to black & white format using NIH ImageJ software for quantification of fragmented mitochondria, denoted as white puncta here.
FIGS. 14A-14B illustrate that coumarin 106 (“C1”, “AIC106”) results in increases in mitochondrial function. FIG. 14A) Basal and maximal respiration measured in live worms in the Seahorse following addition of C1 (50, 200 μM). Values are reported as oxygen consumption rate (OCR, pmol/min/mg protein)+/− FCCP addition; *p<0.05; **p<0.01. FIG. 14B) Sensitivity to treatment for with increasing concentrations of the mitochondrial uncoupler FCCP in the absence and presence of C1 (20, 50 μM; 1 hr). Values are reported as % of live worms per plate, *p<0.01 versus FCCP alone.
FIG. 20, panels A-H: AIC106 treatment improves mitochondrial health. Panel A) Changes in mitochondrial membrane potential were determined by quantifying fluorescence intensity of individual TMRM stained wild type N2 worms post-24 hours treatment with AIC106 and DMSO-control. [N=3 independent experiments (mean±SD). ****p<0.0001, by unpaired t-test]. Panel B) TMRM stained wild type N2 worms were monitored by fluorescence microscopy. Panel C) Mitophagy flux upon AIC106 treatment was determined in DLM14 young adult worms (TOMM-7 tagged to a peptide linked dual-Fluorescent GFP) by quantifying relative fold changes in ratio of monomeric-fluorescent protein (mFP) to dual-fluorescent protein (dFP) compared to DMSO-control. Panel D) Ability of AIC106 to rescue mitochondrial toxin (FCCP) sensitivity was determined as percent survival of 24 hours treated AIC106 and DMSO-control wild type N2 worms. [N=3 independent experiments (mean±SD). ****p<0.0001, by two-way ANOVA with Sidak's multiple comparisons test]. Panel E) Ability of AIC106 to rescue enhanced mitochondrial toxin (FCCP, 20 μM) sensitivity in mitophagy deficient parkin/pdr-1 mutant was determined as percent survival of 24 hours treated AIC106 and DMSO-control pdr-1(tm598) and pdr-1(tm598); hlh-30(tm1978) mutant. [N=3 independent experiments (mean±SD). *p<0.05, by two-way ANOVA with Sidak's multiple comparisons test]. Panel F) Effect of AIC106 on mitochondrial biogenesis was determined by quantifying GFP fluorescence intensity in an individual SJ4143 worm (GFP targeted in mitochondria of intestinal cells) post-72 hours of treatment with AIC106 and DMSO-control. [N=3 independent experiments (mean±SD). ****p<0.0001, by unpaired t-test]. Panel G) SJ4143 worms were monitored by fluorescence microscopy. Panel H) Effects of AIC106 on basal (B) and maximum (M) mitochondrial respiration rate were determined by quantifying oxygen consumption rate (OCR) in wild type N2 and hlh-30(tm1978) mutant strain post-24 hours of treatment with AIC106 and DMSO-control. [N=3 independent experiments (mean±SD). *p<0.05, ***p<0.001 and ****p<0.0001, by one-way ANOVA with Tukey's multiple comparisons test].
FIG. 27, panels A-C: AIC106 induces mitophagy and increases lifespan. Panel A) Relative fold change in mRNA of key mitophagy genes including dct-1, pink-1 and pdr-1 was quantified by qRT-PCR after DMSO-control and AIC106 24 hours treatment in young adult N2 and hlh-30(tm1978) mutants. [N=3 independent experiments (mean±SD). **p<0.01 and ****p<0.0001, by two-way ANOVA with Sidak's multiple comparisons test]. […]

A further assay deals with SH-SY5Y cells. Kind of assay: Immunoblot of TFEB, cathepsin-D and SHP-1 in SH-SY5Y cells. It is filed as cell-based, human. The settings on record: 24 hours. The protocol: FIG. 23, panels A-H: FXR modulation enhances HLH-30 expression in human neuronal SH-SY5Y cells. Panel A) Effects of AIC106 on human FXR activity was determined in a mammalian one-hybrid based kit assay by quantifying changes in the luciferase activity of FXR ligand (GW4064, GW) induced treatment. [N=3 independent experiments (mean±SD). ****p<0.0001, by one-way ANOVA with Tukey's multiple comparisons test]. Panel B) Protein expression of TFEB, cathepsin-D (CAT-D) and small heterodimer partner-1 (SHP-1) was determined by immunoblot in neuronal SH-SY5Y cells post-24 hours of treatment with AIC106 and DMSO-control. Panel C) AIC106 enhances autophagic flux in neuronal SH-SY5Y cells. Autophagic flux in DMSO-control and AIC106 treated neuronal cells was determined by quantifying levels of autophagosome specific LC3-II protein both in presence and absence of autophagy inhibitor bafliomycin A1 (Baf A, 10 nM). Panel D) Relative fold change in the band intensity of LC3-II protein, normalized to loading control actin. Values are relative to DMSO-control. [N=3 independent experiments (mean±SD). *p<0.05 and ****p<0.0001, by one-way ANOVA with Tukey's multiple comparisons test]. Panel E) Effects of AIC106 treatment for 72 hours on basal TAU and phosphorylated-TAU in differentiated human neuronal SH-SHY5Y and heterozygous TSC1(+/−) mutant SH-SY5Y neuronal cells were quantitated by immunoblotting following total protein extraction. Relative fold change in the band intensity compared to SH-SY5Y control treatment for (panel F) total TAU and (panel G) phosphorylated-TAU, normalized to loading control GAPDH. [N=3 independent experiments (mean±SD). *p<0.05 and **p<0.01, by one-way ANOVA with Sidak's multiple comparisons test]. Panel H) AIC106 treatment improves viability and health of differentiated SH-SY5Y-TSC1(+/−) neuronal cells. Images were taken post-96 hours after treatment of differentiated neuronal cells with AIC106.
FIG. 30, panels A-B: FXR modulation enhances HLH-30 expression in human neuronal SH-SY5Y cell. Panel A) TFEB expression in SH-SY5Y cells was determined by immunoblot against TFEB in protein lysates collected after 24 hours of treatment with FXR agonist GW4064 and DMSO control. Panel B) Phosphorylated-TAU levels in SH-SY5Y-P301L-TAU cells was determined by immunoblot against (Ser202, Thr205) in protein lysates collected after 24 hours of treatment with known FXR antagonist Z-gugglsterone (z-GG), DY268 and DMSO control.
A general note: In western blotting, separated proteins are transferred to a membrane and probed.

Data on one compound can be found in patent US12673039B2, “Methods of inducing autophagy using coumarin derivatives and related compounds” (Buck Institute for Research on Aging, priority 2019, dated 2026).

As to `O=c1oc2c3c4c(cc2c2c1CCC2)CCCN4CCC3` [C1, 2,3,6,7,10,11-Hexahydro-1H,5H-cyclopenta(3,4)(1)benzopyrano(6,7,8-ij)quinolizin-12(9H)-one], the “mitophagy flux (mFP)” value with C. elegans (DLM14 worms (FIG. 20, panel C)) was “increased mFP expression”. For the same compound, in the assay on C. elegans (FIG. 13), the mitophagy entry is on record as “elevated mitophagy”. In addition, in the assay with C. elegans (FIG. 14), the mitochondrial health result is recorded as “improvement in mitochondrial health”. The “mRNA of mitophagy specific genes” value in the assay with C. elegans (N2, hlh-30 dependent (FIG. 27, panel A)) was “elevated mRNA abundance of key mitophagy specific genes including dct-1 and pink-1”. For the same compound, in the assay on C. elegans (N2 worms, 24 hours), the “mitochondrial membrane potential (TMRM fluorescence)” value was “significant decrease in the MMP”. For the same compound, in the assay on C. elegans (SJ4143 worms, 72 hours), the “mitochondrial content (GFP)” value is “increased mitochondrial content”. Also, the “maximum respiration capacity (OCR)” value with C. elegans (hlh-30 mutant worms) is “failed to show any increase in the maximum respiration capacity”. For the same compound, in the assay with C. elegans (wild type N2, 24 hours), the “maximum respiration capacity (OCR)” value is reported as “increase maximum respiration capacity”. In the assay on SH-SY5Y cells, the TFEB protein expression entry was “increased expression TFEB protein”; the “cathepsin D (CATD) protein expression” value is given as “enhanced protein expression of TFEB target gene cathepsin D”; the “small heterodimer partner-1 (SHP-1) expression” value is on record as “reduced expression of ligand-bound FXR target, small heterodimer partner-1”.
